From US9084766B2, “Compounds and compositions for targeting cancer stem cells” (Boston Biomedical, Inc., priority 2010, dated 2015)
“Also recorded” adds a separate entry of the source.

Tests used:
HT29 = assay: IC50 versus treatment time, HT29; assay type: cell-based; conditions: HT29 cancer cells
Procedure: The studies described herein discovered counter-intuitively that cancer cells and cancer stem cells requires much shorter exposure than normal cells to be killed by Compound 1. Normal cells can tolerate up to 24 hours of exposure to Compound 1. Furthermore, the studies here discovered that normal cells can recover after a short period of no-drug exposure, while cancer cells cannot recover once they are exposed to a certain concentration of the Compound 1 for at least 2 hours. Based on these studies, a special pharmacokinetic exposure [termed selective pharmacokinetic profile (SPP), or preferred pharmacokinetic profile (PPP), which is used interchangeably in this publication] was designed for Compound 1 using the data shown below in Table 14 for achieving selective antitumor activity in patients (FIG. 24).

[1] = Phase I clinical trial: safety and adverse events
Procedure: A cycle consists of twice-daily oral administration of the compound for 4 weeks. Cycles were repeated every 4 weeks (28 days) until progression of disease, unacceptable toxicity, or another discontinuation criterion is met. The dose escalation trial was conducted as open label and multicenter trial. A modified Simon accelerated titration scheme was used for dose escalation.
The primary objective of the trial was to determine the safety, tolerability, and recommended phase II dose (RP2D). The secondary objectives of the trial were to determine the pharmacokinetic profile of the compound, pharmacodynamics of the compound, and preliminary antitumor activity of the compound.
The inclusion criteria included histologically or cytologically confirmed solid tumor that is metastatic, unresectable, or recurrent; ≧18 years of age; Measurable disease by RECIST; and Karnofsky≧70%. The exclusion criteria included chemotherapy, radiotherapy, immunotherapy or investigational agent within 4 weeks of first dose; surgery within 4 weeks of first dose; and known brain metastases.

[2] = Phase I patients, 20-2000 mg/day oral
[3] = Phase I, dose escalated from 20 mg to 2000 mg/day

For `CC(=O)c1cc2c(o1)C(=O)c1ccccc1C2=O` [Compound 1, 2-acetyl-4H,9H-naphtho[2,3-b]furan-4,9-dione], the IC50 (HT29; treatment time 12-24 h) was < 500 nM, the IC50 (HT29; Homo sapiens, HT-29, treatment time 4-12 h) was < 500 nM and the tolerability in humans ([1]; 20 mg QD) was “good tolerability”. For the same molecule, the tolerability in humans ([1]; 500 mg TID) was “good tolerability”, the “Anorexia, Any Grade, # of Events” value [1, 2] was 4 and the “Anorexia, Any Grade, % of Total” value [1, 2] was 4.9%. For the same molecule, the “Anorexia, Grade 1, # of Events” value [1, 2] was 3, the “Anorexia, Grade 1, % of Total” value [1, 2] was 3.7% and the “Anorexia, Grade 2, # of Events” value [1, 2] was 1. The “Anorexia, Grade 2, % of Total” value [1, 2] was 1.2%, the “Anorexia, Grade 3, # of Events” value [1, 2] was 0 and the “Anorexia, Grade 3, % of Total” value [1, 2] was 0.0%. The “Diarrhea, Any Grade, # of Events” value [1, 2] was 23, the “Diarrhea, Any Grade, % of Total” value [1, 2] was 28.4% and the “Diarrhea, Grade 1, # of Events” value [1, 2] was 20. The “Diarrhea, Grade 1, % of Total” value [1, 2] was 24.7%, the “Diarrhea, Grade 2, # of Events” value [1, 2] was 2 and the “Diarrhea, Grade 2, % of Total” value [1, 2] was 2.5%. The “Diarrhea, Grade 3, # of Events” value [1, 2] was 2, the “Diarrhea, Grade 3, % of Total” value [1, 2] was 2.5% and the “Dysgusia, Any Grade, # of Events” value [1, 2] was 3. The “Dysgusia, Any Grade, % of Total” value [1, 2] was 3.7%, the “Dysgusia, Grade 1, # of Events” value [1, 2] was 3 and the “Dysgusia, Grade 1, % of Total” value [1, 2] was 3.7%. For the same molecule, the “Dysgusia, Grade 2, # of Events” value [1, 2] was 0, the “Dysgusia, Grade 2, % of Total” value [1, 2] was 0.0% and the “Dysgusia, Grade 3, # of Events” value [1, 2] was 0. For the same molecule, the “Dysgusia, Grade 3, % of Total” value [1, 2] was 0.0%, the “Fatigue, Any Grade, # of Events” value [1, 2] was 4 and the “Fatigue, Any Grade, % of Total” value [1, 2] was 4.9%. The “Fatigue, Grade 1, # of Events” value [1, 2] was 1, the “Fatigue, Grade 1, % of Total” value [1, 2] was 1.2% and the “Fatigue, Grade 2, # of Events” value [1, 2] was 2. The “Fatigue, Grade 2, % of Total” value [1, 2] was 2.5%, the “Fatigue, Grade 3, # of Events” value [1, 2] was 1 and the “Fatigue, Grade 3, % of Total” value [1, 2] was 1.2%. The “Fever, Any Grade, # of Events” value [1, 2] was 2, the “Fever, Any Grade, % of Total” value [1, 2] was 2.5% and the “Fever, Grade 1, # of Events” value [1, 2] was 1. For the same molecule, the “Fever, Grade 1, % of Total” value [1, 2] was 1.2%, the “Fever, Grade 2, # of Events” value [1, 2] was 1 and the “Fever, Grade 2, % of Total” value [1, 2] was 1.2%. The “Fever, Grade 3, # of Events” value [1, 2] was 0, the “Fever, Grade 3, % of Total” value [1, 2] was 0.0% and the “Loose stools, Any Grade, # of Events” value [1, 2] was 2. The “Loose stools, Any Grade, % of Total” value [1, 2] was 2.5%, the “Loose stools, Grade 1, # of Events” value [1, 2] was 2 and the “Loose stools, Grade 1, % of Total” value [1, 2] was 2.5%. For the same molecule, the “Loose stools, Grade 2, # of Events” value [1, 2] was 0, the “Loose stools, Grade 2, % of Total” value [1, 2] was 0.0% and the “Loose stools, Grade 3, # of Events” value [1, 2] was 0. For the same molecule, the “Loose stools, Grade 3, % of Total” value [1, 2] was 0.0%, the “Nausea, Any Grade, # of Events” value [1, 2] was 10 and the “Nausea, Any Grade, % of Total” value [1, 2] was 12.3%. For the same molecule, the “Nausea, Grade 1, # of Events” value [1, 2] was 8, the “Nausea, Grade 1, % of Total” value [1, 2] was 9.9% and the “Nausea, Grade 2, # of Events” value [1, 2] was 2. For the same molecule, the “Nausea, Grade 2, % of Total” value [1, 2] was 2.5%, the “Nausea, Grade 3, # of Events” value [1, 2] was 0 and the “Nausea, Grade 3, % of Total” value [1, 2] was 0.0%. The “Skin Rash, Any Grade, # of Events” value [1, 2] was 2, the “Skin Rash, Any Grade, % of Total” value [1, 2] was 2.5% and the “Skin Rash, Grade 1, # of Events” value [1, 2] was 2. For the same molecule, the “Skin Rash, Grade 1, % of Total” value [1, 2] was 2.5%, the “Skin Rash, Grade 2, # of Events” value [1, 2] was 0 and the “Skin Rash, Grade 2, % of Total” value [1, 2] was 0.0%. For the same molecule, the “Skin Rash, Grade 3, # of Events” value [1, 2] was 0, the “Skin Rash, Grade 3, % of Total” value [1, 2] was 0.0% and the “Urine Color Change, Any Grade, # of Events” value [1, 2] was 2. The “Urine Color Change, Any Grade, % of Total” value [1, 2] was 2.5%, the “Urine Color Change, Grade 1, # of Events” value [1, 2] was 2 and the “Urine Color Change, Grade 1, % of Total” value [1, 2] was 2.5%. The “Urine Color Change, Grade 2, # of Events” value [1, 2] was 0, the “Urine Color Change, Grade 2, % of Total” value [1, 2] was 0.0% and the “Urine Color Change, Grade 3, # of Events” value [1, 2] was 0. The “Urine Color Change, Grade 3, % of Total” value [1, 2] was 0.0%, the “Vomiting, Any Grade, # of Events” value [1, 2] was 14 and the “Vomiting, Any Grade, % of Total” value [1, 2] was 17.3%. For the same molecule, the “Vomiting, Grade 1, # of Events” value [1, 2] was 13, the “Vomiting, Grade 1, % of Total” value [1, 2] was 16.0% and the “Vomiting, Grade 2, # of Events” value [1, 2] was 1. For the same molecule, the “Vomiting, Grade 2, % of Total” value [1, 2] was 1.2%, the “Vomiting, Grade 3, # of Events” value [1, 2] was 0 and the “Vomiting, Grade 3, % of Total” value [1, 2] was 0.0%. For the same molecule, the “abdominal cramps, Any Grade, # of Events” value [1, 2] was 6, the “abdominal cramps, Any Grade, % of Total” value [1, 2] was 7.4% and the “abdominal cramps, Grade 1, # of Events” value [1, 2] was 5. The “abdominal cramps, Grade 1, % of Total” value [1, 2] was 6.2%, the “abdominal cramps, Grade 2, # of Events” value [1, 2] was 1 and the “abdominal cramps, Grade 2, % of Total” value [1, 2] was 1.2%. For the same molecule, the “abdominal cramps, Grade 3, # of Events” value [1, 2] was 0, the “abdominal cramps, Grade 3, % of Total” value [1, 2] was 0.0% and the “decreased appetite, Any Grade, # of Events” value [1, 2] was 2. For the same molecule, the “decreased appetite, Any Grade, % of Total” value [1, 2] was 2.5%, the “decreased appetite, Grade 1, # of Events” value [1, 2] was 1 and the “decreased appetite, Grade 1, % of Total” value [1, 2] was 1.2%. For the same molecule, the “decreased appetite, Grade 2, # of Events” value [1, 2] was 1, the “decreased appetite, Grade 2, % of Total” value [1, 2] was 1.2% and the “decreased appetite, Grade 3, # of Events” value [1, 2] was 0. The “decreased appetite, Grade 3, % of Total” value [1, 2] was 0.0%, the “dizzyness, Any Grade, # of Events” value [1, 2] was 2 and the “dizzyness, Any Grade, % of Total” value [1, 2] was 2.5%. For the same molecule, the “dizzyness, Grade 1, # of Events” value [1, 2] was 2, the “dizzyness, Grade 1, % of Total” value [1, 2] was 2.5% and the “dizzyness, Grade 2, # of Events” value [1, 2] was 0. The “dizzyness, Grade 2, % of Total” value [1, 2] was 0.0%, the “dizzyness, Grade 3, # of Events” value [1, 2] was 0 and the “dizzyness, Grade 3, % of Total” value [1, 2] was 0.0%. The “weakness, Any Grade, # of Events” value [1, 2] was 5, the “weakness, Any Grade, % of Total” value [1, 2] was 6.2% and the “weakness, Grade 1, # of Events” value [1, 2] was 2. The “weakness, Grade 1, % of Total” value [1, 2] was 2.5%, the “weakness, Grade 2, # of Events” value [1, 2] was 3 and the “weakness, Grade 2, % of Total” value [1, 2] was 3.7%. For the same molecule, the “weakness, Grade 3, # of Events” value [1, 2] was 0, the “weakness, Grade 3, % of Total” value [1, 2] was 0.0% and the “tolerability of dose escalation in patients” value ([1]; Phase I, 20 mg to 2000 mg/day) was “without drug-induced adverse effects; also recorded: well tolerated”. For the same molecule, the dose-limiting toxicity [1, 3] was “No dose-limiting toxicity was observed; also recorded: No dose limiting toxicity was observed” and the “maximum tolerated dose (MTD)” value [1, 3] was “not reached; also recorded: neither MTD nor RP2D has been reached”.
